{
  "source": "patent US20250345295A1",
  "about": "“LMK235 COMPOSITIONS AND METHODS” (UNM Rainforest Innovations, priority 2024, published 2025)",
  "key": {"HDAC 5": {"molecular_target": "HDAC 5 (Homo sapiens, UniProt Q9UQL6)", "sequence (Q9UQL6 whole entry, species assumed)": "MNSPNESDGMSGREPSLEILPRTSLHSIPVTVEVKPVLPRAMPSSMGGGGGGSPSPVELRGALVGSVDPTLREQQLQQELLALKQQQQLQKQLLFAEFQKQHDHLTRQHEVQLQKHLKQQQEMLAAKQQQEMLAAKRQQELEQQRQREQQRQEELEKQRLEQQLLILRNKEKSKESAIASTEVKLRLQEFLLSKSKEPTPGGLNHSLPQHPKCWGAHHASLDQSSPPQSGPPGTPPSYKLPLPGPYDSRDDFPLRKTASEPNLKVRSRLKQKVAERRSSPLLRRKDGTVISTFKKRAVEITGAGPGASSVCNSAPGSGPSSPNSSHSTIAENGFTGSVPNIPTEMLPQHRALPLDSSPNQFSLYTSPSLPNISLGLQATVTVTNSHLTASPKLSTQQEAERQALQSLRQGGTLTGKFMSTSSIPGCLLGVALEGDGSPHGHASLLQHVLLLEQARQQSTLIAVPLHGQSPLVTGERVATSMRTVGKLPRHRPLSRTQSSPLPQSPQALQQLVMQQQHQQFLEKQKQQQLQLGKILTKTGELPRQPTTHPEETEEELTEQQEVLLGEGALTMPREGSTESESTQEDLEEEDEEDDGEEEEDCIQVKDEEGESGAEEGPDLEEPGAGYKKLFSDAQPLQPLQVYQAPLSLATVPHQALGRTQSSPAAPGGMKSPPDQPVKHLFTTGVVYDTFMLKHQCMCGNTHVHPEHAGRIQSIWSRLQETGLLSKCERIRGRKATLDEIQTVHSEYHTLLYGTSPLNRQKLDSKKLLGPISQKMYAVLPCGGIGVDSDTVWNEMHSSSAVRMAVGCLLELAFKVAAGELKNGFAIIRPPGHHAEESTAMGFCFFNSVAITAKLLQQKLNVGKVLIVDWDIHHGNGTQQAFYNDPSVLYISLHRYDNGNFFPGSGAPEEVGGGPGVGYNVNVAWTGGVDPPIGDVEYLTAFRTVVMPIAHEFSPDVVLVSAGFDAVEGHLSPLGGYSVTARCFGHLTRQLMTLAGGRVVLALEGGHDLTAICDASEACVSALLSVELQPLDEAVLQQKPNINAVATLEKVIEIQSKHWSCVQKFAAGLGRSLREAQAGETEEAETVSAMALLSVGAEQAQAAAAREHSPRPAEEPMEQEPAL", "conditions": "cited from earlier work"}, "[1]": {"test_system": "small (<30 μm) TG neurons from FRICT-ION mice", "test": "Whole-cell patch-clamp electrophysiology, TG neurons from FRICT-ION mice", "assay_type": "cell-based, mouse", "conditions": "13 μM for one hour vs 0.1% DMSO", "description": "The excitability of TG neurons is directly linked to the pathophysiology of trigeminal neuropathic pain. In order to determine the effect of LMK235 on TG neurons from FRICT-ION mice, whole-cell patch-clamp electrophysiological recordings were made from small (<30 μm) TG neurons in the presence of LMK235 (13 μM) or vehicle (0.1% DMSO). TG neurons were obtained from FRICT-ION mice at three weeks post injury or naïve mice. The TG neurons were treated for one hour in vitro with either LMK235 or vehicle control prior to recording (FIG. 7).\nNeurons with a diameter of <30 μm were identified by infrared differential interference contrast (IR-DIC) imaging with a microscope connected to an Olympus digital camera. Current clamp recordings were performed using a Molecular Devices Multiclamp 700B (Scientifica, UK). Signals were filtered at 5 KHz, acquired at 50 KHz using a Molecular Devices 1550B converter (Scientifica, UK) and recorded using Clampex 11 software (Molecular Devices, Scientifica, UK). Electrodes were pulled with a Zeitz puller (Werner Zeitz, Martinsreid, Germany) from borosilicate thick glass (GC150F, Sutter Instruments). Electrode resistance was 5-8 MΩ. Bridge balance was applied to all recordings. Intracellular solution contained (in mM) 125 K-gluconate, 6 KCl, 10 HEPES, 0.1 EGTA, 2 Mg-ATP, pH 7.3 with KOH, and osmolarity of 290-310 mOsm. Artificial cerebrospinal fluid (aCSF) contained (in mM) 113 NaCl, 3 KCl, 25 NaHCO3, 1 NaH2PO4, 2 CaCl2), 2 MgCl2, and 11-glucose. For whole-cell current clamp recordings, to evaluate the basic input-output action potential frequency response to hyperpolarization and depolarization, DC current was injected from 0 pA to +200 pA in 10-pA increments for a duration of 500 milliseconds at the cell's intrinsic resting membrane potential. Data acquisition was sampled at 20 kHz and filtered at 2.4 kHz. Recordings with a series resistance greater than 20 MΩ were discarded, and series resistance was compensated to 70%. In response to a −100 pA hyperpolarizing pulse with 500 millisecond duration, voltage sag amplitude was measured. Sag ratio was calculated using the following equation as described previously (Fan et al., Front Cell Neurosci 2016 Mar. 24; 10:74):\nwhere Vpeak is the maximum voltage deflection and Vss is the steady state voltage at the end of the hyperpolarizing pulse.\nMale mice were euthanized three weeks after inducing the FRICT-ION model. The TG were dissected, minced, and dissociated in an enzymatic combination containing sterile, calcium-free, and magnesium-free HBSS (Cat #14170112, Gibco), papain suspension (32.7 U/mgP, Cat #LS003126; Worthington, Lakewood, NJ), L-Cysteine (Cat #C7352-25g, Sigma), and saturated bicarbonate (Cat #S5761-500g, Sigma) solution. […]"}, "[2]": {"test_system": "HDAC5 and pain related genes in TG", "test": "RT-PCR of TG gene expression", "assay_type": "in vivo, mouse", "description": "To confirm that the anti-allodynic mechanism provided by LMK235 was accompanied by changes in RNA of specific pain relate genes, TG expression of several genes was assessed in the TG of LMK235-treated and untreated FRICT-ION groups to naïve controls with RT-PCR (FIG. 12).\nPrimers were ordered from Bio-Rad Laboratories, Inc. (Hercules, CA). Samples were run by UNM Human Tissue Repository Core facility. 400 μg of total RNA was transcribed into cDNA using iScript cDNA synthesis kit (Catalog #1708890, BioRad Laboratories, Inc., Hercules, CA, USA). Relative analysis of HDAC5 by Sybr Green qRT-PCR was run in order to validate the results observed via RNAseq. All primers, housekeeping gene primers, and the amplicon context sequence were purchased pre-validated from Bio-Rad Laboratories, Inc. (PrimePCR SYBR Green Assay: HDAC5, Mouse, qMmuCID0021326; Bio-Rad Laboratories, Inc., Hercules, CA). All qRT-PCR amplification reactions were done in 20 μl volumes in triplicate using iTaq Universal SYBR Green Supermix (Catalog #1725122, Bio-Rad Laboratories, Inc., Hercules, CA) in 96-well plates and run on a LightCycler 96 qRT-PCR system (Roche, Germany). The Amplification program used for amplification was an initial activation step of 95° C. for two minutes followed by 40 cycles at 95° C. for five seconds and 60° C. for 30 seconds, and concluding with a melt curve of 65° C.-95° C. with five seconds/step. qRT-PCR was done on the HDAC5 gene target and two housekeeping genes within each of the treated and untreated controls and experimental conditions. qRT-PCR data were analyzed using the 2-ΔΔcT method (Livak K J, Schmittgen T D, Methods 2001 December;25(4):402-408). Briefly, the mean ΔcT of each differentially expressed gene target assayed for, in both the experimental conditions and the untreated controls was calculated by subtracting the mean cT from the mean cT of the housekeeping genes values for each sample type. ΔΔcT was then calculated by subtracting the experimental ΔcT group from the control Act group. Expression fold change was expressed as 2-ΔΔcT."}, "[3]": {"conditions": "LMK235-treated FRICT-ION mice, week 10"}},
  "note": "“Also recorded” adds a separate entry of the source.",
  "data": [
    {"molecule": "Cc1cc(C)cc(C(=O)NOCCCCCC(=O)NO)c1", "note": "[LMK235, N-[[6-(Hydroxyamino)-6-oxohexyl]oxy]-3,5-dimethyl-benzamide]", "values": [
      {"measurement": "IC50", "setting": "HDAC 5", "result": 4, "unit": "nM"},
      {"measurement": "distribution of high (>200 pA) vs low (<200 pA) threshold TG neurons", "setting": "[1]", "result": "higher proportion of high threshold (>200 pA) neurons"},
      {"measurement": "resting membrane potential (RMP)", "setting": "[1]", "result": "not significantly altered; also recorded: no significant differences"},
      {"measurement": "rheobase", "setting": "[1]", "result": "not significantly altered; also recorded: no significant differences"},
      {"measurement": "sag ratio", "setting": "[1]", "result": "significantly lower; also recorded: reduced"},
      {"measurement": "HDAC5 expression", "setting": "[2]; LMK235-treated FRICT-ION mice", "result": "reduced"},
      {"measurement": "Hist1h2bc change", "setting": "[2]; LMK235-treated FRICT-ION mice", "result": 1.4, "unit": "fold"},
      {"measurement": "Hist2h2aa1 change", "setting": "[2]; LMK235-treated FRICT-ION mice", "result": 1.6, "unit": "fold"},
      {"measurement": "CCKBR RNA", "setting": "[2]; [3]", "result": "normalized"},
      {"measurement": "GNAI2 RNA", "setting": "[2]; [3]", "result": "partially restored"},
      {"measurement": "IFIT1 RNA", "setting": "[2]; [3]", "result": "partially restored"},
      {"measurement": "NTS RNA", "setting": "[2]; [3]", "result": "normalized"},
      {"measurement": "SCFN9 RNA", "setting": "[2]; [3]", "result": "normalized"},
      {"measurement": "HDAC5 expression", "setting": "[2]; LMK235-treated naïve controls", "result": "reduced"},
      {"measurement": "changes in HDAC10 gene", "setting": "[2]; LMK235-treated naïve mice", "result": "not observed"},
      {"measurement": "changes in HDAC11 gene", "setting": "[2]; LMK235-treated naïve mice", "result": "not observed"}
    ]}
  ]
}
